In ChEMBL document CHEMBL1131299 (J Med Chem, 1998):

How the values were obtained:
[1] = target: T1, Progesterone receptor (Homo sapiens, UniProt P06401); assay: Agonistic activity was measured for modulation of hPR-B (human progesterone receptor) in co-transfected CV-1 cells.; type: functional, cell-based
T1 sequence (P06401 whole entry): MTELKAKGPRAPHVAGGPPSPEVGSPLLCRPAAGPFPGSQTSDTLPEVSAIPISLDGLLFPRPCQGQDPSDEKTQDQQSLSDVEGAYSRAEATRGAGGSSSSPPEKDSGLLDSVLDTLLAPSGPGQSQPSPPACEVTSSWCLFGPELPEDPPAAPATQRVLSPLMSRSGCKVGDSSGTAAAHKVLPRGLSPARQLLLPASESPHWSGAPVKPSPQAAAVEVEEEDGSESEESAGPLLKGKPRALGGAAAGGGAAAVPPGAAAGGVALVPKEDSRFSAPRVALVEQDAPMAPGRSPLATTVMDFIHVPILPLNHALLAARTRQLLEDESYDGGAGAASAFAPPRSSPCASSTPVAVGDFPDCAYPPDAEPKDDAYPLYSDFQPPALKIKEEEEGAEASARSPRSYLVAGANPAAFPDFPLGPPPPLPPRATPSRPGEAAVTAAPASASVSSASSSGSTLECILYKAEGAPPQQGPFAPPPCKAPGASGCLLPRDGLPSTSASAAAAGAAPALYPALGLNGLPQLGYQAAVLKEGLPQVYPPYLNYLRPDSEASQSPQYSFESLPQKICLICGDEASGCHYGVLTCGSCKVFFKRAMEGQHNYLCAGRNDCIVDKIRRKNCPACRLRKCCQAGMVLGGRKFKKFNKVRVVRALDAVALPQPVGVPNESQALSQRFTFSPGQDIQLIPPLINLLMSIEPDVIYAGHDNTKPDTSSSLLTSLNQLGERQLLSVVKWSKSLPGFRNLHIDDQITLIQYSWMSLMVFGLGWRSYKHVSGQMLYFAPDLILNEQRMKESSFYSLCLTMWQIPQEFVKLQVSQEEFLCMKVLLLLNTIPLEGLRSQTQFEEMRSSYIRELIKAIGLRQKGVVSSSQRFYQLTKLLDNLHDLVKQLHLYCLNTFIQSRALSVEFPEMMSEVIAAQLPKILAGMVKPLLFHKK

[2] = target: T1, Progesterone receptor; assay: The binding affinity measured using baculovirus-expressed hPR-A in sf21 cells.
[3] = organism: Rattus norvegicus; assay: Compound was Dawley rats expressed as response to MPA at […]; type: functional

Row | Structure (SMILES) | EC50 [1] [nM] | Ki [2] [nM] | Efficacy [3] [%]
1 | CC1=CC(C)(C)Nc2ccc3c(c21)C(c1ccccc1)Oc1ccc(F)cc1-3 (stereo not drawn) | 7.4 | 2.2 | –
2 | CC1=CC(C)(C)Nc2ccc3c(c21)C(c1cccc(Cl)c1)Oc1ccc(Cl)cc1-3 (stereo not drawn) | 3.6 | 0.48 | –
3 | CC1=CC(C)(C)Nc2ccc3c(c21)C(c1ccc(F)c(C)c1)Oc1ccc(Cl)cc1-3 (stereo not drawn) | 9.5 | 1.3 | –
4 | COc1ccc2c(c1)-c1ccc3c(c1C(c1ccc(Cl)cc1)O2)C(C)=CC(C)(C)N3 (stereo not drawn) | 3.1 | 2.4 | –
5 | CC1=CC(C)(C)Nc2ccc3c(c21)C(c1ccc(Cl)cc1)Oc1ccccc1-3 (stereo not drawn) | 15 | – | –
6 | CC1=CC(C)(C)Nc2ccc3c(c21)C(c1ccccc1)Oc1ccc(Cl)cc1-3 (stereo not drawn) | 6.9 | 0.74 | –
7 | CC1=CC(C)(C)Nc2ccc3c(c21)C(c1ccc(F)c(C)c1)Oc1ccc(F)cc1-3 (stereo not drawn) | 15 | 1.3 | –
8 | COc1ccc(C2Oc3ccc(Cl)cc3-c3ccc4c(c32)C(C)=CC(C)(C)N4)cc1 (stereo not drawn) | 13 | 0.93 | –
9 | CC1=CC(C)(C)Nc2ccc3c(c21)C(c1cccc(F)c1)Oc1ccc(Cl)cc1-3 (stereo not drawn) | 3.7 | 0.34 | –
10 | CC1=CC(C)(C)Nc2ccc3c(c21)C(c1ccc(Br)cc1)Oc1ccc(Cl)cc1-3 (stereo not drawn) | 5.2 | 0.59 | 60
11 | CC1=CC(C)(C)Nc2ccc3c(c21)C(c1cccc(C(F)(F)F)c1)Oc1ccc(F)cc1-3 (stereo not drawn) | 10 | 0.78 | –
12 | CC1=CC(C)(C)Nc2ccc3c(c21)C(c1cccc(C(F)(F)F)c1)Oc1ccc(Cl)cc1-3 (stereo not drawn) | – | 1.1 | –
13 | CC1=CC(C)(C)Nc2ccc3c(c21)C(c1ccc(Cl)c(C)c1)Oc1ccc(F)cc1-3 (stereo not drawn) | 2.7 | 0.49 | –
14 | CC(=O)O[C@]1(C(C)=O)CC[C@H]2[C@@H]3C[C@H](C)C4=CC(=O)CC[C@]4(C)[C@H]3CC[C@@]21C [MEDROXYPROGESTERONE ACETATE] | – | – | 100

The remaining molecules from weak to strong by Ki [2], led by results:

Row | EC50 [1] [nM] | Ki [2] [nM] | Structure (SMILES) | Efficacy [3] [%]
15 | 270 | 2.7 | COc1ccc(C2Oc3ccc(F)cc3-c3ccc4c(c32)C(C)=CC(C)(C)N4)cc1 (stereo not drawn) | –
16 | 10 | 2.7 | CC1=CC(C)(C)Nc2ccc3c(c21)C(c1ccc(Cl)cc1)Oc1cc(F)ccc1-3 (stereo not drawn) | –
17 | 9 | 0.59 | CC1=CC(C)(C)Nc2ccc3c(c21)C(c1ccc(Cl)cc1)Oc1ccc(Cl)cc1-3 (stereo not drawn) | 108
18 | 7.1 | 0.55 | CC1=CC(C)(C)Nc2ccc3c(c21)C(c1cccc(C)c1)Oc1ccc(Cl)cc1-3 (stereo not drawn) | –
19 | – | 0.5 | CC1=CC(C)(C)Nc2ccc3c(c21)C(c1ccc(Cl)c(C)c1)Oc1ccc(Cl)cc1-3 (stereo not drawn) | –
20 | 5 | 0.37 | CC1=CC(C)(C)Nc2ccc3c(c21)C(c1cccc(C)c1)Oc1ccc(F)cc1-3 (stereo not drawn) | –
21 | 8.1 | 0.32 | CC1=CC(C)(C)Nc2ccc3c(c21)C(c1ccc(Cl)cc1)Oc1ccc(F)cc1-3 (stereo not drawn) | 116
22 | 2.8 | 0.32 | CC1=CC(C)(C)Nc2ccc3c(c21)C(c1cccc(Cl)c1)Oc1ccc(F)cc1-3 (stereo not drawn) | –
